In PubChem BioAssay (NCI):
“And” between values parts separate entries of the source, which are not always exact repeats. Identical values can stand only once.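 Following 48 hours of exposure in 96-well plates, responses at five concentrations were used to interpolate endpoints linearly. Abbreviation: GI50, concentration required for 50% inhibition of growth. TGI: concentration producing complete growth inhibition.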

How the values were obtained:
Experiment in all cases: NCI anticancer screen, dose series, 48 h
[1] = tested on: DLD-1 colon
[2] = tested on: DMS 114 small cell lung
[3] = tested on: HCT-116 colon
[4] = tested on: HCT-15 colon
[5] = tested on: HL-60(TB) leukemia
[6] = tested on: HT29 colon
[7] = tested on: K-562 leukemia
[8] = tested on: KM12 colon
[9] = tested on: KM20L2 colon
[10] = tested on: LOX IMVI melanoma
[11] = tested on: LXFL 529 NSCLC
[12] = tested on: MOLT-4 leukemia
[13] = tested on: NCI-H522 lung
[14] = tested on: OVCAR-5 ovarian
[15] = tested on: RPMI-8226 leukemia
[16] = tested on: SF-295 CNS
[17] = tested on: SR leukemia
[18] = tested on: 786-0 renal
[19] = tested on: A498 renal
[20] = tested on: A549 NSCLC
[21] = tested on: ACHN renal
[22] = tested on: BT-549 breast
[23] = tested on: CAKI-1 renal
[24] = tested on: CCRF-CEM leukemia
[25] = tested on: COLO 205 colon
[26] = tested on: DU-145 prostate
[27] = tested on: EKVX NSCLC
[28] = tested on: HCC-2998 colon
[29] = tested on: HOP-62 NSCLC
[30] = tested on: HOP-92 NSCLC
[31] = tested on: HS 578T breast
[32] = tested on: IGROV1 ovarian
[33] = tested on: M14 melanoma
[34] = tested on: MALME-3M melanoma
[35] = tested on: MCF7 breast
[36] = tested on: MDA-MB-231 breast
[37] = tested on: MDA-MB-435
[38] = tested on: MDA-N
[39] = tested on: NCI-H226 lung
[40] = tested on: NCI-H23 lung
[41] = tested on: NCI-H460 lung
[42] = tested on: NCI/ADR-RES ovarian
[43] = tested on: OVCAR-3 ovarian
[44] = tested on: OVCAR-4 ovarian
[45] = tested on: OVCAR-8 ovarian
[46] = tested on: PC-3 prostate
[47] = tested on: RXF 393 renal
[48] = tested on: SF-268 CNS
[49] = tested on: SF-539 CNS
[50] = tested on: SK-MEL-2 melanoma
[51] = tested on: SK-MEL-28 melanoma
[52] = tested on: SK-MEL-5 melanoma
[53] = tested on: SK-OV-3 ovarian
[54] = tested on: SN12C renal
[55] = tested on: SNB-19 CNS
[56] = tested on: SNB-75 CNS
[57] = tested on: SW-620 colon
[58] = tested on: T-47D breast
[59] = tested on: TK-10 renal
[60] = tested on: U251 CNS
[61] = tested on: UACC-257 melanoma
[62] = tested on: UACC-62 melanoma
[63] = tested on: UO-31 renal

CC1C(=O)C(C)C(c2ccccc2)N(C)C1c1ccccc1 (configuration not stated)
GI50 [1]: 26.2 µM and 85.4 µM
TGI [1]: > 100 µM
GI50 [2]: 30 µM and 75.1 µM
TGI [2]: 99.7 µM and > 100 µM
GI50 [3]: 15.7 µM and 40.3 µM
TGI [3]: 30.8 µM and > 100 µM
GI50 [4]: 23.6 µM and 61.1 µM
TGI [4]: 81.8 µM and > 100 µM
TGI [5]: 45.5 µM and > 100 µM
TGI [6]: 91.4 µM and > 100 µM
GI50 [7]: 33.2 µM and 73.4 µM
TGI [7]: > 100 µM
GI50 [8]: 23.7 µM and 90.3 µM
TGI [8]: 67.7 µM and > 100 µM
GI50 [9]: 32.8 µM and 85.8 µM
TGI [9]: > 100 µM
GI50 [10]: 15.8 µM and 86.2 µM
TGI [10]: 31.4 µM and > 100 µM
GI50 [11]: 42.6 µM and 97.9 µM
TGI [11]: > 100 µM
TGI [12]: 57.7 µM and > 100 µM
GI50 [13]: 21.6 µM and 63 µM
TGI [13]: 52.5 µM and > 100 µM
TGI [14]: > 100 µM
TGI [15]: 54.3 µM
GI50 [16]: 28 µM and 87.4 µM
TGI [16]: 93.9 µM and > 100 µM
TGI [17]: 48.2 µM and > 100 µM

CC1(C)CCC(=O)NC1CC(=O)CC1NC(=O)CCC1(C)C (configuration not stated)
TGI [18]: > 100 µM
TGI [19]: > 100 µM
TGI [20]: > 100 µM
TGI [21]: > 100 µM
TGI [22]: > 100 µM
TGI [23]: > 100 µM
TGI [24]: > 100 µM
TGI [25]: > 100 µM
TGI [26]: > 100 µM
TGI [27]: > 100 µM
TGI [28]: > 100 µM
TGI [3]: > 100 µM
TGI [4]: > 100 µM
TGI [5]: > 100 µM
TGI [29]: > 100 µM
TGI [30]: > 100 µM
TGI [31]: > 100 µM
TGI [6]: > 100 µM
TGI [32]: > 100 µM
TGI [7]: > 100 µM
TGI [8]: > 100 µM
TGI [10]: > 100 µM
TGI [33]: > 100 µM
TGI [34]: > 100 µM
TGI [35]: > 100 µM
TGI [36]: > 100 µM
TGI [37]: > 100 µM
TGI [38]: > 100 µM
TGI [12]: > 100 µM
TGI [39]: > 100 µM
TGI [40]: > 100 µM
TGI [41]: > 100 µM
TGI [13]: > 100 µM
TGI [42]: > 100 µM
TGI [43]: > 100 µM
TGI [44]: > 100 µM
TGI [14]: > 100 µM
TGI [45]: > 100 µM
TGI [46]: > 100 µM
TGI [15]: > 100 µM
TGI [47]: > 100 µM
TGI [48]: > 100 µM
TGI [16]: > 100 µM
TGI [49]: > 100 µM
TGI [50]: > 100 µM
TGI [51]: > 100 µM
TGI [52]: > 100 µM
TGI [53]: > 100 µM
TGI [54]: > 100 µM
TGI [55]: > 100 µM
TGI [56]: > 100 µM
TGI [17]: > 100 µM
TGI [57]: > 100 µM
TGI [58]: > 100 µM
TGI [59]: > 100 µM
TGI [60]: > 100 µM
TGI [61]: > 100 µM
TGI [62]: > 100 µM
TGI [63]: > 100 µM
